Results taken from patent US20180273970A1, “PLASMID, TRANSFORMED PLANT CELL AND TRANSGENIC PLANT COMPRISING THE SAME, AND METHODS FOR PREPARING A TRANSGENIC PLANT AND FOR INCREASING YIELD OF A PLANT UNDER ABIOTIC STRESSES” (Academia Sinica, priority 2014, published 2018).

Experiments:
αAmy3 SRC promoter = assay: Barley aleurone transient expression assay, SRC-35Smp:Luc reporter (luciferase); assay type: cell-based; details: barley aleurones, 5 μM ABA or 400 mM sorbitol, 24 h
Method: FIG. 21. ABA and sorbitol suppress the function of SnRK1A in activation of αAmy3 SRC promoter. Rice embryos and barley aleurones were transfected with reporter SRC-35Smp:Luc with or without effectors, incubated with or without ABA for 24 h, and assayed for luciferase activity. The luciferase activity in embryos or aleurones bombarded with the SRC-35S mp-Luc construct only and in +S medium was set to 1×, and other values were calculated relative to this value. Error bars indicate the SE for three replicate experiments. (A) Plasmid constructs. (B) Barley aleurones were transfected with effector Ubi:SnRK1A, Ubi:SKIN1 or Ubi:SKIN(Ri) alone and reporter SRC-35Smp:Luc, or co-transfected with effectors Ubi:SnRK1A and Ubi:SKIN or Ubi:SKIN(Ri) and reporter SRC-35Smp:Luc. (C) Rice embryos (upper panel) were transfected with or without Ubi:SnRK1A and incubated with or without 1 μM ABA or 50 mM sorbitol, and barley aleurones (lower panel) were transfected with or without Ubi:SnRK1A and incubated with 5 μM ABA or 400 mM sorbitol.
The barley aleurone/endosperm transient expression assays were performed as described (Hong et al., 2012). Each independent experiment consisted of three replicates, with six endosperms for each treatment, and was repeated three times with similar results. Luciferase and GUS activity assays were performed as described (Hong et al., 2012). […]

rice seedlings = assay: Germination and seedling shoot growth in water containing ABA; assay type: in vivo; details: ABA 1 to 10 μM, 6 days, 28° C., 14-h light/10-h dark
Method: FIG. 9. The expression of SKIN is induced by various abiotic stresses and ABA, and SKINs promote the ABA sensitivity. (A) Total RNA was purified from leaves of 2-week-old rice seedlings that had been air dried, treated with 200 mM salt, incubated at 4° C., or treated with 1 μM ABA, or from embryos of seedlings grown underwater (hypoxia), for various lengths of time. RNAs were subjected to quantitative RT-PCR analysis using primers specific for SKIN1 and SKIN2. The highest mRNA level was set as 100%. The lowest mRNA level was assigned a value of 1× and mRNA levels of other samples were calculated relative to this value. Error bars indicate the SE for three replicate experiments. (B) Seeds of transgenic lines SKIN1-Ox(O3), SKIN1-Ri(R3), SKIN2-Ox(02) and SKIN2-Ri(R1) were germinated and grown in water containing various concentrations of ABA at 28° C. under a 14-h light/10-h dark cycle for 6 days. Lengths of shoots were measured. Error bars represent SE (n=8) at significance levels: * p<0.1, ** p<0.05. For photos of treated seedlings, see also FIG. 20 online.
FIG. 20. Growth of transgenic rice overexpressing SKIN is more sensitive to ABA inhibition. Seeds of transgenic lines SKIN1-Ox(O3), SKIN1-Ri(R3), SKIN2-Ox(02) and SKIN2-Ri(R1) were germinated and grown in water containing various concentrations of ABA for 6 days at 28 C under a 14-h light/10-h dark cycle. […]

SKIN-GFP = assay: Cellular localization of SKIN-GFP in transfected barley aleurones (confocal microscopy); assay type: cell-based; details: −S medium containing ABA, 48 h
Method: FIG. 10. ABA restricts SKINs, SnRK1A and MYBS1 in the cytoplasm under sugar starvation. Barley aleurones were co-transfected with indicated plasmid constructs and incubated in +S or −S medium with ABA (+ABA) or without ABA (−ABA) for 48 h. Thirty optical sections of 0.9-1.1 μm thickness were prepared for each cell and only five regularly spaced sections (sections 3, 9, 15, 21 and 27) are shown here. C and N indicate higher GFP signals, and c and n indicate lower GFP signals in the cytoplasm and nucleus, respectively. For more section images of each cell, see also FIG. 22 online. (A) Barley aleurones were transfected with Ubi:SKIN1-GFP, Ubi:SKIN2-GFP, Ubi:SnRK1A-GFP or Ubi:MYBS1-GFP alone. (B) Barley aleurones were transfected with Ubi.MYBS1-GFP alone (panel 1) or co-transfected with Ubi.MYBS1-GFP and Ubi:SnRK1A (panel 2), or with Ubi.MYBS1-GFP and Ubi:SnRK1A(Ri) (panel 3). (C) Barley aleurones were co-transfected with Ubi:SnRK1A-GFP and Ubi:SKIN(Ri). (D) Wild type rice (WT) or transgenic rice overexpression Ubi:SKIN(Ri) were transfected with Ubi:SnRK1A-GFP (panels 1-3) or Ubi.MYBS1-GFP (panels 4-6).
Detection of cellular localization of SKIN-GFP, SnRK1A-GFP and MYBS1-GFP fusion proteins were performed as described (Hong et al., 2012). […]

CC1=CC(=O)CC(C)(C)[C@@]1(O)/C=C/C(C)=C\C(=O)O [ABA, abscisic acid] was tested, and the “Effect on αAmy3 SRC promoter (luciferase activity), alone and SnRK1A-activated” value (αAmy3 SRC promoter) was “suppressed”, the “Degree of inhibition on growth of wild type and all transgenic lines” value (rice seedlings) was “increased with ABA concentrations from 1 to 10 μM” and the “Localization of SKIN-GFP” value (SKIN-GFP) was “exclusively localized in the cytoplasm”.
